Measured values reported in PMC12766730, “Controlled Self-Immolative Release of β‑Lapachone via an Optimized para-Hydroxybenzyl Linker for Targeted Pancreatic Cancer Therapy” (Journal of the American Chemical Society, 2025).
Like-named read-outs stand apart in the source and are kept apart here.

Experiments:
[1] = Release of β-lapachone (1) from deprotected PHB/PAB linkers (3 or 25) in citrate-phosphate buffers pH 3–10, analytical HPLC; format: physicochemical
Procedure: First, the purified mixture of two prodrug diastereomers (16a–j) for each PHB derivative was incubated with β-glucuronidase. This enabled full removal of the glucuronide moiety from both diastereomers of the prodrug within 2–15 min, leaving a mixture of two PHB-β-lapachone enantiomers (3a–j, Figure c). For PAB compound 22, penicillin G amidase was used in place of β-glucuronidase to give a mixture of two PAB-β-lapachone enantiomers (25). The 3 (or 25) solution was then spiked into citrate-phosphate buffers from pH 3–10, and release of 1 from 3 (or 25) was measured at various time points by analytical HPLC. A single peak for the two enantiomers of 3 was observed after glucuronide removal, and thus the measured k obs was for both enantiomers in the mixture.
3 Release rate comparison for PHB and PAB prodrugs. The mechanisms of release for the β-glucuronide–PHB prodrug derivatives (a) and the PAB derivative (b) are shown. β-glucuronidase or penicillin G amidase deprotects the PHB or PAB linkers, yielding 3 or 25, respectively. A 1,6-elimination then occurs, releasing the hydroquinone form of β-lapachone, which then oxidizes into the ortho-quinone. (c) The substituents on the PHB/PAB linker for each derivative are shown and classified into which strategy they employed, lowering phenolate pK a or stabilizing the elimination TS. BLap = β-lapachone in its α-hydroxy ketol form (refer to panel a). The predicted pK a values are also shown, calculated using MolGpKa. (d) The representative HPLC traces of a release experiment for 3g at pH 7 are shown (RT: retention time) normalized to the warfarin (WF) internal standard (IS, RT = 11.6 min). The peak for 3g (RT = 12.5 min) decreases while the peak for 1 (RT = 10.8 min) increases over time. The traces for all other derivatives at each pH are included in Figures S10–S20, S34–S45. (e) The calculated k obs values from these release kinetic experiments for each PHB derivative are plotted versus pH on a logarithmic scale. Derivatives 3a–e were designed to lower the PHB phenol pK a, while derivatives 3f–j were designed to stabilize the 1,6-elimination TS. (f) The first-order reaction rate constants of the PAB derivatives 4 (pink) and 25 (purple) are plotted together with 3a (black) and the best-performing PHB derivatives 3f (cyan) and 3i (dark green) for direct comparison. The derivations of the plotted first-order k obs values from linearized initial velocities measured in triplicate are shown in Figures S23–S33. […]
Over time, the intensity of the 3/25 peak decreased, while the intensity of the 1 peak increased (Figure d). A standard curve for β-lapachone (Figure S22) was prepared, enabling quantification of the released β-lapachone.

[2] = design: method as in Dunsmore et al.; conditions: k obs of compound 4 previously reported, ref Dunsmore et al., cited from earlier work
AsPC-1 [3] = experiment: PDAC cell viability after 72 h of treatment, AsPC-1; format: cell-based; conditions: Homo sapiens, ASPC1, exogenous β-glucuronidase added, average ± SD of biological replicates, read-out: AsPC-1 IC50
Procedure: (§1) All ortho-quinone prodrug derivatives were tested on two pancreatic cancer cell lines, PANC-1 and AsPC-1, to assess efficacy in cell killing (Figures , S88–89, S91, Tables , and S8.1). Exogenous β-glucuronidase was added to the cell media to mimic the extracellular enzyme present in the TME. […] Those derivatives with release rates slower than that of 16a, like 16e, had less efficacy in cells comparatively (Table ).
(§2) 7 PDAC cell viability with prodrug treatment. Representative PANC-1 (a) and AsPC-1 (b) cell viability data of four β-lapachone prodrug derivatives after 72 h of treatment with exogenous β-glucuronidase added. Panels (c, d) show the toxicity of functional prodrugs up to 100 μM in PANC-1 (c) and AsPC-1 (d) cells without exogenous β-glucuronidase enzyme present after 72 h incubation.
(§3) To assess the TW of the prodrug derivatives, we tested each of them in both the PANC-1 and AsPC-1 cell lines at up to 100 μM without the β-glucuronidase enzyme present. In agreement with the HPLC stability assay data, we saw no toxicity in all stable prodrug derivatives up to this concentration (Figure c,d). […] In comparison, all the stable glucuronide prodrug derivatives retained 100% viability at 100 μM. […] It is generally considered that a drug has a good therapeutic safety profile if the TI is greater than 10, which our best derivatives far exceed, signaling that our prodrug is safe to deliver systemically in future in vivo experiments and should not cause any adverse effects in areas where β-glucuronidase is not overexpressed. ,

PANC-1 [4] = experiment: PDAC cell viability after 72 h of treatment, PANC-1; format: cell-based; conditions: Homo sapiens, PANC-1, exogenous β-glucuronidase added
Procedure: as §1, §2, §3

AsPC-1 [5] = experiment: Reactive oxygen species generation after 24 h treatment, AsPC-1; format: cell-based
Excerpt: (§4) 8 Target expression, ROS production, and quinone methide toxicity in PDAC Cell Lines. […] The A549 cell line was used as a positive control for NQO1 enzyme expression, and the HL-60 cell line was used as a positive control for 5-LO enzyme expression. For β-glucuronidase expression, two consecutive technical replicates are shown for each biological replicate, with all three biological replicates represented for both cell lines. […] Results were normalized to baseline cellular ROS activity as 0 and positive control tert-butyl hydrogen peroxide (TBHP) as 100. Adjusted p-values of 0.0012 (**) and <0.0001 (****) are shown for statistically significant comparisons.

PANC-1 [6] = experiment: Reactive oxygen species generation after 24 h treatment, PANC-1; format: cell-based
Excerpt: as §4

[7] = HPLC stability assay of prodrugs in buffers pH 3, 5, 7, 7.4 (PBS), 9 at 37 °C for 72 h without trigger; format: physicochemical; conditions: 37 °C, 72 h, pH 3–9
Procedure: The diastereomeric mixture of each β-glucuronide–PHB-β-lapachone prodrug (16a–j) and PAB derivative 22 were then tested for stability in citrate-phosphate buffers across a range of pHs (3, 5, 7, 7.4 (PBS), 9) via an HPLC stability assay. For derivatives 16a, 16b, 16d, 16e, 16h, and 16j, when no β-glucuronidase enzyme was added, both diastereomers of 16 were fully stable at 37 °C for 72 h (Figures a,d, S63, S64, S66–68, S71, and S73). […] This premature release was greatest at acidic pH 3 for 16g, with very minimal lapachone release detected at pH 5–9 (Figure c). The released lapachone was quantified and compared to the starting concentration of each prodrug to calculate the percent of the prodrug that had been prematurely released (Figures f,g, S76). […] Therefore, a trade-off exists between ring activation, improving the release rate from 3 while also decreasing prodrug stability, and it rendered 16g clinically disadvantageous.  5 Stability of prodrugs is pH dependent. The representative HPLC traces for (a) a stable prodrug 16a and (b) an unstable prodrug 16g are shown after incubation at 37 °C in pH 7.4 PBS buffer. […] (c) The area of the lapachone peak for 16g normalized to the IS was plotted, displaying substantial growth over time at pH 3. […] For panels c–g, each value is plotted as the mean ± SD of three replicates. The HPLC traces (Figures S50–S62) and peak area graphs (Figures S63–S75) for all other derivatives can be found in the Supporting Information. The stability of 26 was also evaluated from pH 3–9 (Figures d,f–h S86–S87). […] This degradation was the largest at pH 9, with a measurable decrease in the prodrug peak area after 72 h (Figure g). The lapachone released after 72 h was quantified using a standard curve (Tables S6.1–S6.2). At pH 3 and 5, approximately 0.2% of the total prodrug lapachone had been released.

[8] = design: method as in Gong et al.; conditions: pH 7.4; 5 equiv H2O2; ref Gong et al.; cited from earlier work
[9] = HPLC stability assay of prodrugs in buffers pH 3, 5, 7, 7.4 (PBS), 9 at 37 °C for 72 h without trigger; format: physicochemical; conditions: after dilution into aqueous buffer
[10] = no extracellular enzyme, compared to β-lapachone

## COc1cc(N)ccc1CC1(O)C(=O)C2=C(OC(C)(C)CC2)c2ccccc21 (stereo not drawn) [compound 25]
[1]; 3f vs 3a, 25 vs 4
  release rate faster than unsubstituted parent: around 2 orders of magnitude

## COc1cc(O)cc(OC)c1CC1(O)C(=O)C2=C(OC(C)(C)CC2)c2ccccc21 (stereo not drawn) [3g]
[1]; pH 5, compared with unsubstituted 3a
  acceleration of release rate at pH 5: ~2200 fold
[1]; pH 7.5, compared with unsubstituted 3a
  acceleration of release rate at pH 7.5: ~800 fold

## CC1(C)CCC2=C(O1)c1ccccc1C(O)(Cc1ccc(N)cc1)C2=O (stereo not drawn) [compound 4]
[2]; pH 5
  half-life of quinone release at pH 5: 101 ± 7 h
[2]; pH 6
  t 1/2 at pH 6 (drug release half-life): 931 h

## COc1cc(O[C@@H]2O[C@H](C(=O)O)[C@@H](O)[C@H](O)[C@H]2O)ccc1CC1(O)C(=O)C2=C(OC(C)(C)CC2)c2ccccc21 (mixture of isomers) [16f]
AsPC-1 [3]
  IC50: 2900 ± 60 nM
PANC-1 [4]; average ± SD of biological replicates, read-out: PANC-1 IC50
  IC50: 700 ± 200 nM
PANC-1 [4]; representative experiment, read-out: IC50 on PANC-1, representative viability data (Figure 7a)
  IC50: 600 nM
AsPC-1 [5]; [10]
  ROS generation without β-glucuronidase: significantly less ROS than β-lapachone alone
AsPC-1 [5]; β-glucuronidase added
  ROS generation with β-glucuronidase: restored generation of ROS
PANC-1 [6]; [10]
  ROS generation without β-glucuronidase: significantly less ROS than β-lapachone alone
PANC-1 [6]; β-glucuronidase added
  ROS generation with β-glucuronidase: restored generation of ROS
[7]
  stability of the prodrug without triggering enzyme: trace β-lapachone release was detected

## CC1(C)CCC2=C(O1)c1ccccc1C(O)(Cc1ccc(B3OC(C)(C)C(C)(C)O3)cc1)C2=O (stereo not drawn) [compound 24]
[8]
  time to complete release of 1: ≤ 2 h
[9]
  time to complete hydrolysis into boronic acid 26: ≤ 5 min
